# Source: the supplement of paper PMC10307832
# Columns and labels:
# Test in all cases: relative viability (nuclei count vs DMSO), 5 days (fraction); higher = more cells survive
# HCC-78 = system: HCC-78
# Procedure, shortened: (§1)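 Lung cancer cell lines in 1536-well plates got either a single drug or a fixed anchor-drug dose together with five library-drug doses (not always all listed) in √10 steps, by pin tool, on the day after seeding. Nuclei were counted after 5 days, and relative viability is the treated-to-vehicle ratio of nuclei counts. Values are medians of duplicate plates.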
# LCLC-97TM1 = system: LCLC-97TM1
# Procedure, shortened: as §1
# H3255 = system: H3255
# Procedure, shortened: as §1
# NCI-H1666 = system: NCI-H1666
# Procedure, shortened: as §1
# NCI-H647 = system: NCI-H647
# Procedure, shortened: as §1
# RERF-LC-KJ = system: RERF-LC-KJ
# Procedure, shortened: as §1
# NCI-H2126 = system: NCI-H2126
# Procedure, shortened: as §1
# NCI-H1915 = system: NCI-H1915
# Procedure, shortened: as §1
# NCI-H23 = system: NCI-H23
# Procedure, shortened: as §1
# EPLC-272H = system: EPLC-272H
# Procedure, shortened: as §1
# NCI-H650 = system: NCI-H650
# Procedure, shortened: as §1
# NCI-H2347 = system: NCI-H2347
# Procedure, shortened: as §1
# LC-2-ad = system: LC-2-ad
# Procedure, shortened: as §1
# NCI-H2087 = system: NCI-H2087
# Procedure, shortened: as §1
# NCI-H2405 = system: NCI-H2405
# Procedure, shortened: as §1
# HCC-827 = system: HCC-827
# Procedure, shortened: as §1
# ChaGo-K-1 = system: ChaGo-K-1
# Procedure, shortened: as §1
# 201T = system: 201T
# Procedure, shortened: as §1
# PC-14 = system: PC-14
# Procedure, shortened: as §1
compound,measurement,setting,value
O=c1cc(N2CCOCC2)oc2c(-c3cccc4c3sc3ccccc34)cccc12 + NC(=O)Nc1cc(-c2cccc(F)c2)sc1C(=O)N[C@H]1CCCNC1 [AZD7762] (partner 0.2 µM),relative viability,HCC-78; first compound 0.01 µM,0.629
same,relative viability,HCC-78; first compound 0.03162 µM,0.616
same,relative viability,HCC-78; first compound 0.1 µM,0.354
same,relative viability,HCC-78; first compound 0.3162 µM,0.615
same,relative viability,HCC-78; first compound 1 µM,0.5
same,relative viability,LCLC-97TM1; first compound 0.01 µM,0.215
same,relative viability,LCLC-97TM1; first compound 0.03162 µM,0.353
same,relative viability,LCLC-97TM1; first compound 0.1 µM,0.0724
same,relative viability,LCLC-97TM1; first compound 0.3162 µM,0.349
same,relative viability,LCLC-97TM1; first compound 1 µM,0.22
same,relative viability,H3255; first compound 0.01 µM,0.901
same,relative viability,H3255; first compound 0.03162 µM,0.933
same,relative viability,H3255; first compound 0.1 µM,0.845
same,relative viability,H3255; first compound 0.3162 µM,0.822
same,relative viability,H3255; first compound 1 µM,0.852
same,relative viability,NCI-H1666; first compound 0.01 µM,0.842
same,relative viability,NCI-H1666; first compound 0.03162 µM,0.886
same,relative viability,NCI-H1666; first compound 0.1 µM,0.797
same,relative viability,NCI-H1666; first compound 0.3162 µM,0.675
same,relative viability,NCI-H1666; first compound 1 µM,0.7
same,relative viability,NCI-H647; first compound 0.01 µM,0.371
same,relative viability,NCI-H647; first compound 0.03162 µM,0.486
same,relative viability,NCI-H647; first compound 0.1 µM,0.0676
same,relative viability,NCI-H647; first compound 0.3162 µM,0.515
same,relative viability,NCI-H647; first compound 1 µM,0.363
same,relative viability,RERF-LC-KJ; first compound 0.01 µM,0.595
same,relative viability,RERF-LC-KJ; first compound 0.03162 µM,0.951
same,relative viability,RERF-LC-KJ; first compound 0.1 µM,1.18
same,relative viability,RERF-LC-KJ; first compound 0.3162 µM,0.994
same,relative viability,RERF-LC-KJ; first compound 1 µM,1.03
same,relative viability,NCI-H2126; first compound 0.01 µM,0.982
same,relative viability,NCI-H2126; first compound 0.03162 µM,0.97
same,relative viability,NCI-H2126; first compound 0.1 µM,1.12
same,relative viability,NCI-H2126; first compound 0.3162 µM,0.981
same,relative viability,NCI-H2126; first compound 1 µM,1.02
same,relative viability,NCI-H1915; first compound 0.01 µM,0.763
same,relative viability,NCI-H1915; first compound 0.03162 µM,0.725
same,relative viability,NCI-H1915; first compound 0.1 µM,0.731
same,relative viability,NCI-H1915; first compound 0.3162 µM,0.658
same,relative viability,NCI-H1915; first compound 1 µM,0.675
same,relative viability,NCI-H23; first compound 0.01 µM,0.306
same,relative viability,NCI-H23; first compound 0.03162 µM,0.309
same,relative viability,NCI-H23; first compound 0.3162 µM,0.307
same,relative viability,NCI-H23; first compound 1 µM,0.272
same,relative viability,EPLC-272H; first compound 0.01 µM,0.244
same,relative viability,EPLC-272H; first compound 0.03162 µM,0.282
same,relative viability,EPLC-272H; first compound 0.1 µM,0.12
same,relative viability,EPLC-272H; first compound 0.3162 µM,0.31
same,relative viability,EPLC-272H; first compound 1 µM,0.211
same,relative viability,NCI-H650; first compound 0.01 µM,1.11
same,relative viability,NCI-H650; first compound 0.03162 µM,1.15
same,relative viability,NCI-H650; first compound 0.3162 µM,1.15
same,relative viability,NCI-H650; first compound 1 µM,1.24
same,relative viability,NCI-H2347; first compound 0.01 µM,0.843
same,relative viability,NCI-H2347; first compound 0.03162 µM,0.791
same,relative viability,NCI-H2347; first compound 0.1 µM,0.601
same,relative viability,NCI-H2347; first compound 0.3162 µM,0.714
same,relative viability,NCI-H2347; first compound 1 µM,0.601
same,relative viability,LC-2-ad; first compound 0.01 µM,0.815
same,relative viability,LC-2-ad; first compound 0.03162 µM,0.777
same,relative viability,LC-2-ad; first compound 0.1 µM,0.831
same,relative viability,LC-2-ad; first compound 0.3162 µM,0.817
same,relative viability,LC-2-ad; first compound 1 µM,0.785
same,relative viability,NCI-H2087; first compound 0.01 µM,1.37
same,relative viability,NCI-H2087; first compound 0.03162 µM,1.23
same,relative viability,NCI-H2087; first compound 0.1 µM,1.44
same,relative viability,NCI-H2087; first compound 0.3162 µM,1.31
same,relative viability,NCI-H2087; first compound 1 µM,1.36
same,relative viability,NCI-H2405; first compound 0.01 µM,0.7
same,relative viability,NCI-H2405; first compound 0.03162 µM,0.727
same,relative viability,NCI-H2405; first compound 0.1 µM,0.552
same,relative viability,NCI-H2405; first compound 0.3162 µM,0.787
same,relative viability,NCI-H2405; first compound 1 µM,0.827
same,relative viability,HCC-827; first compound 0.01 µM,0.26
same,relative viability,HCC-827; first compound 0.03162 µM,0.179
same,relative viability,HCC-827; first compound 0.1 µM,0.133
same,relative viability,HCC-827; first compound 0.3162 µM,0.184
same,relative viability,HCC-827; first compound 1 µM,0.261
same,relative viability,ChaGo-K-1; first compound 0.01 µM,0.847
same,relative viability,ChaGo-K-1; first compound 0.03162 µM,0.898
same,relative viability,ChaGo-K-1; first compound 0.1 µM,0.6
same,relative viability,ChaGo-K-1; first compound 0.3162 µM,0.831
same,relative viability,ChaGo-K-1; first compound 1 µM,0.938
same,relative viability,201T; first compound 0.01 µM,0.624
same,relative viability,201T; first compound 0.03162 µM,0.619
same,relative viability,201T; first compound 0.1 µM,0.615
same,relative viability,201T; first compound 0.3162 µM,0.585
same,relative viability,201T; first compound 1 µM,0.583
same,relative viability,PC-14; first compound 0.01 µM,0.306
same,relative viability,PC-14; first compound 0.03162 µM,0.322
same,relative viability,PC-14; first compound 0.1 µM,0.116
same,relative viability,PC-14; first compound 0.3162 µM,0.516
same,relative viability,PC-14; first compound 1 µM,0.27
